Reference: publication PMC9820118, “Betulin Acid Ester Derivatives Inhibit Cancer Cell Growth by Inducing Apoptosis through Caspase Cascade Activation: A Comprehensive In Vitro and In Silico Study” (International Journal of Molecular Sciences, 2022)
Entries after “also recorded” stand apart in the source; their conditions may differ.

Key:
[1] = test system: MV4-11 cells; assay: Cell cycle analysis, PI staining flow cytometry, MV4-11; format: cell-based, human; settings: about IC50, 24 and 72 h
Protocol: (§1) The effects of the selected derivatives on the cell cycle were analyzed by flow cytometry using PI staining.
(§2) The MV4-11, A549 and PC-3 cells were seeded on 24-well plates (Sarstedt, Germany) for a final volume of 1.5 mL. […] After incubation, the cells were collected and 1 × 10^6 of cells were washed twice in cold PBS and fixed for 24 h in 70% ethanol at −20 °C, the cells were washed twice in PBS and incubated with RNAse (8 μg/mL, Fermentas, Germany) at 37 °C for 1 h. The cells were stained for 30 min. with propidium iodide (50 μg/mL, Sigma Aldrich, Germany) at 4 °C and the cellular DNA content was analyzed by flow cytometry using BD LSRFortessa cytometer (BD Bioscience, San Jose, CA, USA). Compounds at each concentration were tested at least three times independently. The obtained results were analyzed using Flowing software 2.5.1 (Cell Imaging Core, Turku Centre for Biotechnology, University of Turku and Åbo Akademi University, Turku, Finland).

[2] = test system: A549 cells; assay: Induction of apoptosis, Annexin V/PI staining, A549; format: cell-based, human; settings: about 1.5 × IC50, 24 h
Description: (§3) Apoptosis is one of a cell’s natural mechanisms for programmed cell death. It plays a crucial role in homeostasis by eliminating the unwanted or unnecessary cells. One of the most important functions of apoptosis is prevention of cancer. However, cancer cells often lose the ability to enter the path of apoptosis, which allows them to survive longer and grow in an uncontrolled manner. Regardless of that, apoptosis still remains the most important molecular mechanism to combat cancer cells; therefore, research is conducted to obtain agents with the ability to selectively induce apoptosis in cancer cell lines.
(§4) The MV4-11, A549 and PC-3 cells were seeded on 24-well plates (Sarstedt, Germany) for a final volume of 1.5 mL. […] After incubation, the cells were collected and 2 × 10^5 of cells were washed twice with PBS. […] Results were analyzed using Flowing software 2.5.1. […]

[3] = test system: caspase-3/7; assay: Caspase-3/7 activity (AC-DEVD-AMC substrate) in A549 cells; format: cell-based, human; parameters: key: +: plus mark represents statistically important elevated activity of caspase 3/7 compared to control
Description: (§5) Caspase-3 and caspase-7 are cysteine-aspartic acid proteases that can directly execute apoptosis […] sequential activation of caspase-8 or caspase-9. Activation of these enzymes leads to apoptotic cell death; thus, measuring their activity is a good method to determine the pro-apoptotic potential of tested compounds. One of the mechanisms of betulin’s antiproliferative activity is activation of these enzymes; therefore, to further examine the mechanism of action of tested derivatives, we decided to determine their levels.
(§6) The MV4-11, A549 and PC-3 cells were seeded on 48-well plates for a final volume of 1 mL. […] After incubation, the cells were collected and centrifuged (5 min., 4 °C, 250× g). Cells were suspended in 50 µL of ice-cold lysis buffer (50 mM HEPES, 10% (w/v) sucrose, 150 mM NaCl, 2 mM EDTA and 1% (v/v) Triton X-100, pH 7.3, HIIET, Poland) and incubated 30 min. at […]. After the incubation, 40 µL of each sample was transferred to a white, 96-well plate (Corning, CA, USA) containing 160 µL of the reaction buffer (20 mM HEPES, 10 % sucrose, 100 mM NaCl, 1 mM EDTA, 10 mM DTT, 0.02 % Trition X-100, pH 7.3) (HIIET, Wroclaw, Poland) with 9 µM AC-DEVD-AMC (Cayman Chemical) fluorogenic substrate (λex = 360 nm, λem = 460 nm). The fluorescence increase correlated with the caspase-3/7 level was continuously recorded at 37 °C for 120 min using a Biotek Synergy H4 (Biokom, Warsaw, Poland). Compounds were tested in duplicates in a single experiment and each experiment was repeated at least three times independently. Results were normalized to the number of cells in each well and are reported as mean relative caspase-3/7 activity compared to the untreated control sample ± SD.

[4] = test system: caspase-3/7; assay: Caspase-3/7 activity (AC-DEVD-AMC substrate) in PC-3 cells; format: cell-based, human; parameters: key to Caspase 3/7 Activity, PC-3: +: plus mark represents statistically important elevated activity of caspase 3/7 compared to control; settings: +/− summary vs control
Description: as §5, §6

[5] = Cytotoxicity, SRB assay, normal BALB/3T3 fibroblasts; settings: mouse, BALB/3T3 normal fibroblast cells
[6] = test system: PC-3 cells; assay: Induction of apoptosis, Annexin V/PI staining, PC-3; format: cell-based, human; settings: about 1.5 × IC50, 72 h
Description: as §3, §4

[7] = test system: A549 cells; assay: Cell cycle analysis, PI staining flow cytometry, A549; format: cell-based, human
Protocol: as §1, §2

[8] = test system: PC-3 cell line; assay: Antiproliferative activity, SRB assay, PC-3 prostate carcinoma cells
Protocol: (§7) The in vitro antiproliferative activity tests have been conducted against four human cancer cell lines: MV4-11 biphenotypic B myelomonocytic leukemia cell line, A549 lung carcinoma cell line, MCF-7 breast carcinoma cell line, PC-3 prostate carcinoma cell line and one normal BALB/3T3 mouse fibroblast cell line. […] All tested compounds were dissolved in DMSO and diluted with a culture medium to a desired concentration. […] Cell viability, after 72 h incubation of the cells with tested compounds, was determined using tetrazolinum dye MTT (for MV4-11 cells) or sulforhodamine B (SRB test, for MCF-7, A549, PC-3, BALB/3T3 cells) colorimetric assays.
(§8) Human biphenotypic B myelomonocytic leukemia MV4-11, murine normal fibroblast BALB/3T3 cells were obtained from the American Type Culture Collection (USA); and human lung carcinoma A549, human breast cancer MCF-7 and human prostate adenocarcinoma PC-3 were obtained from the European Collection of Authenticated Cell Cultures (UK).
(§9) MV4-11 and PC-3 cells were cultured in RPMI 1640 medium (HIIET PAS, Poland) with 1.0 mM sodium pyruvate (only MV4-11) and 10% fetal bovine serum (FBS) (all from Merck, Darmstadt, Germany). A549 cells were cultured in RPMI 1640 + Opti-MEM (1:1) ((HIIET PAS, Poland and Gibco, UK) supplemented with 5% fetal bovine serum (Merck, Darmstadt, Germany). The MCF-7 cells were cultured in Eagle medium (HIIET PAS, Poland) supplemented with 8 mg/mL of insulin and 1% of MEM NON-Essential amino acid (all Merck, Darmstadt, Germany). Normal fibroblasts BALB/3T3 cells were cultured in DMEM medium (Gibco, UK) supplemented with 10% fetal bovine serum and 1.0 mM sodium pyruvate (all from Merck, Darmstadt, Germany). All culture media were supplemented with 2 mM L-glutamine (Merck, Darmstadt, Germany), 100 units/ml penicillin, (Polfa Tarchomin S.A., Poland) and 100 µg/mL streptomycin (Merck, Darmstadt, Germany). All cell lines were grown at 37 °C in a 5% CO2 humidified atmosphere.
(§10) The solutions of the tested compounds were prepared by dissolving the substances in DMSO to the desired concentration (25 mM). Then, the tested compounds were diluted in a culture medium to reach the final concentrations. Before addition of the tested compounds (24 h prior), the cells were plated in 96-well plates (Sarstedt, Germany) at a density of 1 × 10^4, 0.75 × 10^4 (MCF-7) or 0.5 × 10^4 (A549) cells per well. The assay was performed after 72 h of exposure to 100, 10, 1 and 0.1 µM concentration of the tested agents. […] The SRB method determined the amount of cellular proteins. The concentration of the colorimetric probe (formazan in MTT or sulforhodamine B in SRB method) was determined by an optical density measurement using a standard microplate reader for 96-well plates. After optical density measurement, using the data of the mean absorbances of control cells (AbCC), the absorbances of cells treated by the tested compound (AbTr) (for each concentration separately) and the absorbance of the cultured medium (AbCM) the % of cell proliferation inhibition was calculated according to the following formula: % inh. cells proliferation=100−AbTr−AbCM/AbCC−AbCM×100
(§11) From the obtained proliferation inhibition values, effect-concentration curves of the compound used were plotted. […] IC50 values were calculated for each experiment separately using the Prolab-3 system based on Cheburator 0.4 software [36] and mean values (±SD) are presented. Each compound in each concentration was tested in triplicate in a single experiment, which was repeated 3–5 times.

[9] = Experimental lipophilicity by RP-TLC
Protocol: The retention mechanism in the RP-TLC method is based on the partition of substances between two phases. Silica gel (RP-18 F254S plates) was used as the hydrophobic stationary phase. In contrast, the hydrophilic mobile phase was a binary mixture of acetone and an aqueous solution of TRIS buffer.
Chromatographic analysis by RP-TLC was performed an aluminum backed silica gel RP-18 F254S
phenylanthracene] and tested betulin derivatives were dissolved in chloroform to obtain a
concentration of 2 mg/mL. The prepared solutions were spotted on the plates in the amount of 2 μL.
the next step, the chromatographic chambers were saturated 30 min of the appropriate mobile phases
consisting of a mixture of acetone (Merck, Darmstadt, Germany) and aqueous solution of buffer Tris
[(tris-hydroxymethyl)aminomethane] (Fluka, Loughborough, 0.2 M, pH 7.4). The amount of acetone in
the mobile phase were in the range 60-90% in 5% increments. The chromatograms were developed for
each compound in triplicate at room temperature. The spots of betulin derivatives were visualized by
spraying the plates with the mixture of ethanol and concentrated sulfuric acid (10:1, v/v) and heating
The retardation factor (Rf) were calculated according to the equation below:
(a-the distance from the start line to the spot center, b-the distance from the start line to the mobile
The RM values were calculated by the Bate-Smith and Westall equation:
The RM0 parameters were obtained by extrapolating on the acetone content to zero, according to the
Soczewiński-Wachtmeister equation:
(C-the percentage concentration of acetone in the mobile phase, b-the slope of the regression plot).
The calibration curve was determined using eight reference compounds.
compounds were determined under the same conditions as for betulin derivatives (Table S1).

[10] = test system: MCF-7 cell line; assay: Antiproliferative activity, SRB assay, MCF-7 breast carcinoma cells
[11] = test system: MV4-11 cells; assay: Antiproliferative activity, MTT assay, MV4-11 leukemia cells; format: cell-based, human
Protocol: as §7, §8, §9, §10, §11

[12] = test system: A549 cell line; assay: Antiproliferative activity, SRB assay, A549 lung carcinoma cells

Compound: C=C(C)[C@@H]1CC[C@]2(COC(=O)CCC(=O)O)CC[C@]3(C)C(CCC4[C@@]5(C)CC[C@H](O)C(C)(C)C5CC[C@]43C)C12 (stereo partly shown) [compound 2]
- Influence on cell cycle, MV4-11 [1]: statistically significant increase in the number of cells in the G0/G1 phase
- Induction of apoptosis (AnV/PI), A549, 24 h [2]: significantly increased levels of early-apoptotic and apoptotic cells
- caspase 3/7 activity, A549 ([3]; 1.5 × IC50, 24 h, several-fold lower at 72 h): hugely elevated caspase 3/7 activity
- caspase 3/7 activity, A549 ([3]; +/− summary vs control): +
- Caspase 3/7 Activity, PC-3 [4]: +
- IC50 at 72 h [5]: 53.4 µM
- Induction of apoptosis (AnV/PI), PC-3, 72 h [6]: shifting the ratio of the living cell population towards apoptotic and necrotic ones
- Influence on cell cycle, A549, 24 h ([7]; about IC50, 24 h): significantly induced cell cycle arrest in the G0/G1 phase; also recorded: reduced the number of cells in the S phase with an increased number of dead cells
- Influence on cell cycle, A549, 72 h ([7]; about IC50, 72 h): greater percentage of dead cells with a decrease in G2/M and G0/G1 phases
- IC50 ([8]; Homo sapiens, PC-3, 72 h, read-out: Cytotoxicity IC50 against PC-3 cell line): 68.5 µM
- Calculated Selectivity Index SI, PC-3 ([8]; IC50 BALB/3T3 / IC50 PC-3): 0.8
- RM0 ([9]; RP-TLC, RP-18 F254S, acetone / Tris buffer pH 7.4, extrapolated to zero acetone): 5.910
- log PTLC ([9]; from RM0 by calibration curve with eight reference compounds): 8.191
- IC50 ([10]; Homo sapiens, MCF7, 72 h, read-out: Cytotoxicity IC50 against MCF-7 cell line): 53.6 µM
- Calculated Selectivity Index SI, MCF-7 ([10]; IC50 BALB/3T3 / IC50 MCF-7): 1.0
- IC50 ([11]; Homo sapiens, MV4-11, 72 h, 72 h incubation, MTT, read-out: Growth inhibition IC50, leukemia cell line MV4-11): 23.2 µM
- Calculated Selectivity Index SI, MV4-11 ([11]; IC50 BALB/3T3 / IC50 MV4-11): 2.3
- IC50 ([12]; Homo sapiens, A549, 72 h, read-out: Cytotoxicity IC50 against A549 cell line): 35.3 µM
- Calculated Selectivity Index SI, A549 ([12]; IC50 BALB/3T3 / IC50 A549): 1.5
